Test results as given in US20050209278A1, “Piperidinyl- and piperazinyl-sulfonylmethyl hydroxamic acids and their use as protease inhibitors” (priority 2002, published 2005).

How the values were obtained:
MMP-1 = molecular target: T1, MMP-1 (Homo sapiens, UniProt P03956); experiment: In vitro MMP inhibition, Ki determination (fluorogenic substrate II); format: biochemical; details: value not in parenthesis; read-out: MMP-1 Ki
T1 construct: made in house; host or cells: MMP-1-transfected HT-1080 cells (spent media)
T1 sequence (P03956 100-469): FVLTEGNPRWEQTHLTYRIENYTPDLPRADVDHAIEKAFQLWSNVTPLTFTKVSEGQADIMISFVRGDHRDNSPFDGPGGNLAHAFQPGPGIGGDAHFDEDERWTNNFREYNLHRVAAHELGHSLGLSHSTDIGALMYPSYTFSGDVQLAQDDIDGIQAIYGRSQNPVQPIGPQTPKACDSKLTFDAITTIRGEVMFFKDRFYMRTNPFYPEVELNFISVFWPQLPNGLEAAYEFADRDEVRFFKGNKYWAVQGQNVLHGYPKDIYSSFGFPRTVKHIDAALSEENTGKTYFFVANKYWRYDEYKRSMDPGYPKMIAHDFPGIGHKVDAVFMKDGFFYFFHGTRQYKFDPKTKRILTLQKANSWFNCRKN

MMP-13 = molecular target: T2, MMP-13 (Homo sapiens, UniProt P45452); experiment: as above; format: biochemical; details: value not in parenthesis; read-out: MMP-13 Ki
T2 construct: made in house; host or cells: baculovirus / insect cells
In short: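 Ki determined with human recombinant MMP-13, baculovirus-expressed as proenzyme and activated with APMA. Fluorogenic MCA/Dpa substrate II at 4 μM (at or below Km) with low enzyme in Tris buffer pH 7.5 with CaCl2. Incubation was 1 h at room temperature, with fluorescence read at 330/420 nm.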

Structure (SMILES) | Ki (MMP-1) | Ki (MMP-13)
COCCN1CCC(C(=O)NO)(S(=O)(=O)N2CCN(c3ccc(OC(F)(F)F)cc3)CC2)CC1 [Example 202] | 7520 nM | 0.967 nM
CCCCCc1ccc(N2CCN(S(=O)(=O)C3(C(=O)NO)CCN(C(=O)CC)CC3)CC2)cc1 [Example 206] | > 10000 nM | 0.41 nM
CCCCOc1ccc(N2CCN(S(=O)(=O)C3(C(=O)NO)CCN(C(=O)N(CC)CC)CC3)CC2)cc1 [Example 242] | > 10000 nM | 0.331 nM
Cc1ccc(-c2ccc(N3CCN(S(=O)(=O)C4(C(=O)NO)CCOCC4)CC3)cc2)cc1 [Example 207] | 3250 nM | 0.94 nM
CCCNC(=O)c1ccc(N2CCN(S(=O)(=O)C3(C(=O)NO)CCN(CCOC)CC3)CC2)cc1 [Example 175] | > 10000 nM | 8.25 nM
CCCCCc1ccc(N2CCN(S(=O)(=O)C3(C(=O)NO)CCOCC3)CC2)nc1 [Example 167] | 6220 nM | 0.08 nM
CCCCCc1ccc(N2CCN(S(=O)(=O)C3(C(=O)NO)CCN(S(=O)(=O)N(C)C)CC3)CC2)cc1 [Example 236] | > 10000 nM | 1.47 nM
COc1ccc(-c2ccc(N3CCN(S(=O)(=O)C4(C(=O)NO)CCOCC4)CC3)nc2)cc1 [Example 61] | 493 nM | 0.16 nM
CCOCCSc1ccc(N2CCN(S(=O)(=O)C3(C(=O)NO)CCOCC3)CC2)cc1 [Example 234] | > 10000 nM | 1.61 nM
O=C(NO)C1(S(=O)(=O)N2CCN(c3ccc4c(c3)OC(F)(F)C(F)(F)O4)CC2)CCOCC1 [Example 67] | > 10000 nM | 156 nM
CCCc1nnc(N2CCN(S(=O)(=O)C3(C(=O)NO)CCOCC3)CC2)s1 [Example 216] | > 10000 nM | 734 nM
CCCCOc1ccc(N2CCN(S(=O)(=O)C3(C(=O)NO)CCN(c4ccc(OC)c(OC)c4)CC3)CC2)cc1 [Example 229] | > 10000 nM | 1.01 nM
O=C(NO)C1(S(=O)(=O)N2CCN(c3ccc(-c4ccc(F)cc4)cc3)CC2)CCOCC1 [Example 208] | 1730 nM | 0.36 nM
CCCCOc1ccc(N2CCN(S(=O)(=O)C3(C(=O)NO)CCN(c4cccc(C)c4)CC3)CC2)cc1 [Example 226] | > 10000 nM | 4.38 nM
CCCCC(=O)c1ccc(N2CCN(S(=O)(=O)C3(C(=O)NO)CCN(CCOC)CC3)CC2)cc1 [Example 177] | 7360 nM | 0.847 nM
COCCSc1ccc(N2CCN(S(=O)(=O)C3(C(=O)NO)CCOCC3)CC2)cc1 [Example 227] | 9280 nM | 1.79 nM
CCCCCc1ccc(N2CCN(S(=O)(=O)C3(C(=O)NO)CCN(C(C)=O)CC3)CC2)cc1 [Example 239] | > 10000 nM | 0.37 nM
CCCCOc1ccc(N2CCN(S(=O)(=O)C3(C(=O)NO)CCN(Cc4ccc(C)o4)CC3)CC2)cc1 [Example 246] | > 10000 nM | 0.396 nM
COCCN1CCC(C(=O)NO)(S(=O)(=O)N2CCN(c3ccc(C(C)=O)cc3)CC2)CC1 [Example 174] | 4650 nM | 3.52 nM
CCCCOc1ccc(N2CCN(S(=O)(=O)C3(C(=O)NO)CC3)CC2)cc1 [Example 63] | > 10000 nM | 3.16 nM
CCCc1ccc(N2CCN(S(=O)(=O)C3(C(=O)NO)CCN(c4ccc(C)cc4)CC3)CC2)cc1 [Example 171] | > 10000 nM | 21.5 nM
CCCCOc1c(F)cc(N2CCN(S(=O)(=O)C3(C(=O)NO)CCN(CCOC)CC3)CC2)cc1F [Example 165] | > 10000 nM | 1.03 nM
